Results published in patent US20150232420A1, “TRANSGLUTAMINASE TG2 INHIBITORS, PHARMACEUTICAL COMPOSITIONS, AND METHODS OF USE THEREOF” (priority 2012, published 2015).
Read-outs that look alike come from different tables or passages of the source.

Experiments:
[1] = Permeability in wild type MDCK monolayers; assay type: in vitro ADME; settings: dog; wild type MDCK, apical to basolateral, 10 μM, pH 7.4; read-out: MDCK-WT Papp A-B
Description: (§1) The MDR1-MDCKII and wild type MDCKII cell lines were cultured in accordance with the guidelines provided by Solvo Biotechnology. Both wild-type MDCK and MDR1-MDCK cells were seeded at a cell density of 2.3×10^5 cells/well into 24-well Transwell plates and cultured for three days to form monolayers. Test compound was loaded into the donor compartments of the Transwell plate (24-well) bearing MDR1-MDCK or wild type MDCK monolayers. Test compound was added to either the apical or basolateral chambers of the Transwell plate assembly at a concentration of 10 μM in Hanks' Balanced Salt Solution containing 25 mM HEPES (pH 7.4). Lucifer Yellow was added to the apical buffer in all wells and its permeation monitored to assess integrity of the cell layer. As Lucifer Yellow (LY) cannot freely permeate lipophilic barriers, a high degree of LY transport indicates poor integrity of the cell layer and wells with LY permeability >100 nm/s are rejected.

[2] = tested on: wild type MDCKII cell line; assay: Permeability in wild type MDCK monolayers; assay type: in vitro ADME; settings: MDCK study; in words
Description: as §1

[3] = Liver microsomal stability (human); assay type: in vitro ADME
Description: (§2) Incubations of test compound (1 μM initial concentration, n=2) were carried out with pooled hepatic liver microsomes (0.25 mg protein/mL in 0.1 M phosphate buffer pH7.4). NADPH (1 mM) was added to initiate the reactions. The incubations were performed at 37° C. Samples (100 μL) were taken from the incubation at 0, 5, 10, 20 and 40 min and added to 100 μL of acetonitrile containing carbamazepine as analytical internal standard, to terminate the reaction. Samples were centrifuged and the supernatant fractions analyzed using LC-MS/MS.
(§3) For all incubations, the instrument response (i.e. chromatographic peak area or peak height, normalized by internal standard), at each time-point were referenced to the zero time-point samples (as 100%) in order to determine the percentage of compound remaining at that time-point. Plots of the natural logarithm (Ln) of the percent of parent remaining for each compound, versus time, were used to determine the half-life in the incubation of interest.
(§4) Half-life values (t1/2) were calculated from the relationship: t1/2 (min)=−0.693/λ where λ was the slope of the Ln concentration versus time curve.
For incubations in hepatic liver microsomes, the in vitro intrinsic clearance, Clint (μL/min/mg microsomal protein), was calculated using the following formula:
Clint=(0.693/t1/2 microsomal)*(ml incubation/mg microsomal protein)*(mg microsomal protein/g liver)*(g liver/kg body weight)

[4] = target: T1, P-glycoprotein (P-gp) (Homo sapiens, UniProt P08183); assay: Effective efflux ratio in MDCK-MDR1; assay type: in vitro ADME
T1 construct: host or cells: MDCKII (MDR1-MDCKII)
Description: as §1
P-glycoprotein (P-gp) is one of the main efflux transporters in brain; the potential for compound 1 and compound 2 to be effluxed by P-gp was assessed in an MDCK-MDR1 transfected cell line.

[5] = Plasma stability (mouse); assay type: in vitro ADME; settings: pooled plasma
Description: (§5) Incubations of test compound (1 μM initial concentration, n=2) were carried out with pooled plasma or BSA (45 mg/mL in 0.1 M phosphate buffered saline pH 7.4). The incubations were performed at 37° C. Samples (50 μL) were obtained from the incubation at 0, 10, 30, 120, 240, 360 and 1440 min, and added to 150 μL of acetonitrile containing carbamazepine as analytical internal standard to terminate the reaction. Samples were centrifuged and the supernatant fractions analyzed using LC-MS/MS.
as §3, §4

[6] = Plasma stability (human); assay type: in vitro ADME; settings: pooled plasma
Description: as §5, §3, §4

[7] = Liver microsomal stability (mouse); assay type: in vitro ADME
Description: as §2, §3, §4
For incubations in hepatic liver microsomes, the in vitro intrinsic clearance, Clint (μL/min/mg microsomal protein), was calculated using the following formula: […]

[8] = kinetic solubility assay; assay type: physicochemical
[9] = target: T2, human TG2 (Homo sapiens, UniProt P21980); assay: fluorescent screening assay for human TG2; assay type: biochemical
T2 sequence (P21980 1-687): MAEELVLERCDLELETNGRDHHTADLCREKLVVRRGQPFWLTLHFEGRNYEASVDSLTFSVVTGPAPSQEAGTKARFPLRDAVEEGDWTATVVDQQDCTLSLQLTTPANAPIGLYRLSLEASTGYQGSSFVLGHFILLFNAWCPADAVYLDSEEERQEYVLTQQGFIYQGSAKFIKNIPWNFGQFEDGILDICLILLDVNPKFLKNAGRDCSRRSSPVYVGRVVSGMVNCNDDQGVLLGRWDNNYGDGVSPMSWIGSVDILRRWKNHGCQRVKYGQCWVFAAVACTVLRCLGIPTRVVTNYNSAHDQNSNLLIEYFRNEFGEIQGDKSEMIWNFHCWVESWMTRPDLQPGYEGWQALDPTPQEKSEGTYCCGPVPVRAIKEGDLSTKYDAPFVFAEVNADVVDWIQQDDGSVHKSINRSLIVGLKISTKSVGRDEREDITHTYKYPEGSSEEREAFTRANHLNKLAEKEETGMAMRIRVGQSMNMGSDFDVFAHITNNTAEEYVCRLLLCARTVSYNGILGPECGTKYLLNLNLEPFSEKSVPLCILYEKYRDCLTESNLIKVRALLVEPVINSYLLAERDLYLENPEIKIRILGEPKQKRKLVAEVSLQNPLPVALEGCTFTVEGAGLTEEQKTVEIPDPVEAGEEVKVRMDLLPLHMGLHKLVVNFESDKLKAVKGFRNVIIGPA
Description: The fluorescent screening assay for human TG2 was performed as described herein: Assay conditions were 20 nM TG2, 8 μM N,N-dimethylated Casein (NMC) and 16 μM K×D (used for all transglutaminase assays) in 25 mM Hepes, pH 7.4, 250 mM NaCl, 2 mM MgCl2, 0.5 mM CaCl2, 0.2 mM DTT, 0.05% Pluronic F-127 at 37° C. A time point was taken with a microplate reader (Safire or Ultra, Tecan; ex: 350 nm, em: 535 nm) every 3 minutes for up to 2 hours and the initial linear reaction progress was used to determine the reaction velocity as a measure for enzyme activity. Assay conditions were identical for human TG6 and similar for human TG1 and mouse TG2 apart from enzyme concentration (mTG2 at 5 nM; TG1 at 10 nM) and CaCl2 concentration (0.2 mM for mTG2; 0.05 mM for TG1). Factor XIIIa was activated using 0.1 μg/μl thrombin (Sigma) in 35 mM Tris pH 8.0 for 20 min at 30° C. and the transamidation reaction was performed with 20 nM Factor XIIIa in 50 mM Tris pH 8.0, 1.25 mM CaCl2, 0.05% Pluronic, 0.2 mM DTT. TG3 was activated with 0.02 μg/μl thrombin under the same conditions as Factor XIIIa and assay conditions were 10 nM TG3 in 50 mM Hepes, pH 8, 20 mM CaCl2, 0.2 mM DTT, 0.05% Pluronic F-127.

T1 sequence (P08183 whole entry): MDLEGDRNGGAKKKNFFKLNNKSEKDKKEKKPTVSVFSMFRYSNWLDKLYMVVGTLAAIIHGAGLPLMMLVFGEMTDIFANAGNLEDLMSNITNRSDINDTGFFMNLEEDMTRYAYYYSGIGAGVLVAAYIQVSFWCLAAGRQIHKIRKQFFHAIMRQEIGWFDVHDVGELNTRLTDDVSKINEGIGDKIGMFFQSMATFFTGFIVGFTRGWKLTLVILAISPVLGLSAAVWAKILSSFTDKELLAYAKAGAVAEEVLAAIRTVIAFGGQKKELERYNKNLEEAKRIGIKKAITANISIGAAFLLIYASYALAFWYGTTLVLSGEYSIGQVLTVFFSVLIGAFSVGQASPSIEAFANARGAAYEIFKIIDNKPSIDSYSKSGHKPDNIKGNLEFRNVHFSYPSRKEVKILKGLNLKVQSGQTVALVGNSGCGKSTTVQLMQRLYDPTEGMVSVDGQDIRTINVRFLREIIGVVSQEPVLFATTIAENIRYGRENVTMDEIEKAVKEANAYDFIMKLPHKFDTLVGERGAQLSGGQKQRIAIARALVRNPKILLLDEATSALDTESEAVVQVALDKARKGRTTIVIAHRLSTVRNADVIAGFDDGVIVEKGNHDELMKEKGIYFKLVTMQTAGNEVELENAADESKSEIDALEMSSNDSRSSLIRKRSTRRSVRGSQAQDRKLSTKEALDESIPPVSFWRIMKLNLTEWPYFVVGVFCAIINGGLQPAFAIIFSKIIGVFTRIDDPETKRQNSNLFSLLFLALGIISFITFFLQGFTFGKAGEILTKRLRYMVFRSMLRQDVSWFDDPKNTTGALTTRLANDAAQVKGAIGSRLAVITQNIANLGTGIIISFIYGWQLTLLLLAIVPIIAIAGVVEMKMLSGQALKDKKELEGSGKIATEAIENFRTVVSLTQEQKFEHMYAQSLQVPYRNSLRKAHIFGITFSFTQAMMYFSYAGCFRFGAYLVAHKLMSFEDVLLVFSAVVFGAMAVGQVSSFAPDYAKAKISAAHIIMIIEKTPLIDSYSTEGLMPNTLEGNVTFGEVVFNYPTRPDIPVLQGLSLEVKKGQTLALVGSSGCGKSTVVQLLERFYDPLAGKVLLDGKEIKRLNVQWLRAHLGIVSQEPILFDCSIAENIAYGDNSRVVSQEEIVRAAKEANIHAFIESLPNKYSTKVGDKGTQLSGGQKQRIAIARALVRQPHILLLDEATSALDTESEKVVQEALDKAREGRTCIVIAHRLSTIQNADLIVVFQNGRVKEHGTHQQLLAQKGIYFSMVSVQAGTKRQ

C=CC(=O)NCCCC[C@H](NC(=O)Cc1ccccc1)C(=O)N1CCN(c2cccc(C)n2)CC1 [compound 2, N-[(5S)-6-[4-(6-methylpyridin-2-yl)piperazin-1-yl]-6-oxo-5-(2-phenylacetamido)hexyl]prop-2-enamide]
Papp A→B at 10 μM [1]: 30.3 ×10⁻⁶ cm/s
permeability [2]: good permeability
metabolic stability in liver microsomal stability testing ([3]; human, in words): poor
microsomal CLint at 1 μM ([3]; pooled liver microsomes, pH 7.4, human liver microsomes, 1 μM, 0.25 mg protein/mL, NADPH, read-out: hLM Clint): > 1390 µL/min/mg
active efflux via P-gp ([4]; MDCK-MDR1 transfected cell line, in words): high active efflux
MDCK-MDR1 EER ([4]; effective efflux ratio, 10 μM): 7.1
half-life at 1 μM ([5]; mouse plasma, 1 μM, 37° C., read-out: Mouse Plasma T1/2): > 8 h
half-life at 1 μM ([5]; read-out: half-life in mouse plasma): > 24 h
half-life at 1 μM ([6]; human plasma, 1 μM, 37° C., read-out: Human Plasma T1/2): > 8 h
half-life at 1 μM ([6]; read-out: half-life in human plasma): > 24 h
metabolic stability in liver microsomal stability testing ([7]; mouse, in words): poor
microsomal CLint at 1 μM ([7]; pooled liver microsomes, pH 7.4, mouse liver microsomes, 1 μM, 0.25 mg protein/mL, NADPH, read-out: mLM Clint): > 1390 µL/min/mg
solubility in a kinetic solubility assay ([8]; in words): good solubility
Aq. Sol. ([8]; kinetic solubility): 0.06 mg/mL
IC50 ([9]; Table 7, 20 nM TG2, 37° C., read-out: IC50): < 100 nM
IC50 ([9]; Table 8, read-out: TG2 IC50): 60 nM
